Results from BigSolDB 2.1.

CC(C)OC(=O)[C@H](C)N[P@](=O)(OC[C@H]1O[C@@H](n2ccc(=O)[nH]c2=O)[C@](C)(F)[C@@H]1O)Oc1ccccc1
solubility (mole fraction)
Settings	278.15 K	283.15 K	288.15 K	293.15 K	298.15 K	303.15 K	308.15 K	313.15 K	318.15 K
in acetone	0.0275	0.0343	0.0435	0.0538	0.066	0.0796	0.0951	0.113	0.134
in acetonitrile	0.00484	0.00629	0.00812	0.0101	0.0127	0.0156	0.019	0.0234	0.0286
in cyclohexane	–	6.09e-07	9.4e-07	1.44e-06	2.09e-06	3.05e-06	4.33e-06	6.11e-06	8.66e-06
in ethanol	0.022	0.0274	0.0342	0.0416	0.0505	0.0599	0.0712	0.0842	0.0997
in ethyl acetate	0.00263	0.00362	0.00486	0.00641	0.0084	0.0108	0.0139	0.0178	0.0228
in n-butanol	0.00935	0.0116	0.0144	0.0182	0.0225	0.0278	0.034	0.0413	0.0501
in toluene	4.46e-06	7.43e-06	1.1e-05	1.75e-05	2.67e-05	4.02e-05	6.15e-05	9.44e-05	0.000144
in water	1.18e-05	1.85e-05	2.59e-05	3.65e-05	5.05e-05	7.02e-05	9.6e-05	0.000131	0.00017
